These results are taken from patent US9718825B2, “N-(4-(azaindazol-6-yl)-phenyl)-sulfonamides and their use as pharmaceuticals” (priority 2013, dated 2017).

pIC50: −log10 of the molar value.

recombinant human SGK-1 enzyme, sequence (O00141 whole entry, looked up): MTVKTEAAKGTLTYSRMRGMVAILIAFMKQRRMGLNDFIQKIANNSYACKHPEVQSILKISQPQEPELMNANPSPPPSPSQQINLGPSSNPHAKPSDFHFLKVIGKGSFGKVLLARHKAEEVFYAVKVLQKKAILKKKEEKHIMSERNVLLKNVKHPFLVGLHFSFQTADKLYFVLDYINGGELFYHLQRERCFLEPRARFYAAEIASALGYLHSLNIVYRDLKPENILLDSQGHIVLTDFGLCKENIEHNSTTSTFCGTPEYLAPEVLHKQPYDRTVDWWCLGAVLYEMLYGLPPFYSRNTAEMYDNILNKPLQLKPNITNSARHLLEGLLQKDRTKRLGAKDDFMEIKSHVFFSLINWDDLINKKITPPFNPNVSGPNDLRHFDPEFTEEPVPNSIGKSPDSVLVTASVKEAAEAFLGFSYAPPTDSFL

One assay relates to SGK-1 dependent phosphorylation of GSK3beta in U2OS cells. Briefly: SGK-1 dependent phosphorylation of GSK3beta in U2OS cells overexpressing recombinant SGK-1 and GSK3beta. Particulars: Homo sapiens; U2OS cells, 6 h incubation, ratio of phosphorylated GSK3beta to total GSK3beta; read-out: IC50 values for inhibition of SGK-1 dependent phosphorylation of GSK3beta in U2OS cells. Format: cell-based, human. The method, then: B) Determination of the Effect on SGK-1 Dependent Phosphorylation of GSK3beta in U2OS Cells
U2OS cells were cultured in 1:1 Dulbecco modified Eagle medium/Ham's F12 and 10% heat-inactivated fetal calf serum (FCS Gold) at 37° C., 7% CO2 and 95% relative humidity. […] Cell suspension mixed with BacMam viruses was seeded in 96 well pCLEAR plates (Greiner) at 3×10^4 cells per well in 250 μl medium. […] 1 μl of a solution of the test compound at 250×final concentration was added. Cells are incubated at 37° C., 7% CO2 and 95% relative humidity. […] After removing the fixation solution, cells were permeabilised by adding 200 μl PBT (0.2% Triton X-100 in PBS) per well for 5 min. After removing PBT, cells were blocked by adding 200 μl of blocking solution (1% bovine serum albumine in PBS) per well. Blocking solution was removed and 50 μl of primary antibody (rabbit anti-phospho-GSK-3beta (Ser9), and mouse anti-GSK-3beta) were added for 1 h. […] After washing the cells 3 times with PBS, 200 μl of PBS were added. Fluorescence signals were measured with the ImageXpress MICRO (Molecular Devices).
As usually defined, the pIC50 is −log10 of the IC50, conventionally taken in molar units. In the case of `Cc1nc(-c2ccc(NS(=O)(=O)c3cc(Cl)ccc3Cl)cc2)nc2[nH]nc(NC(=O)C3CC(O)C3)c12` (centres unmarked) [Example 536, 3-Hydroxy-cyclobutanecarboxylic acid {6-[4-(2,5-dichloro-benzenesulfonylamino)-phenyl]-4-methyl-1H-pyrazolo[3,4-d]pyrimidin-3-yl}-amide], the negative-log IC50 (pIC50) is 5.51. On the same count and under the same terms, for `Cc1ccc(C#N)c(S(=O)(=O)Nc2ccc(-c3cc4[nH]nc(N)c4cn3)cc2)c1` [Example 553, N-[4-(3-Amino-1H-pyrazolo[4,3-c]pyridin-6-yl)phenyl]-2-cyano-5-methyl-benzenesulfonamide] the value was 5.19; for `Nc1n[nH]c2nc(-c3ccc(NS(=O)(=O)c4cc(Cl)ccc4F)cc3)nc(C(F)(F)F)c12` [Example 568, N-[4-(3-Amino-4-trifluoromethyl-1H-pyrazolo[3,4-d]pyrimidin-6-yl)-phenyl]-5-chloro-2-fluoro-benzenesulfonamide], 6.77; for `Cc1nc(-c2ccc(NS(=O)(=O)c3cc(Cl)ccc3Cl)cc2)nc2[nH]nc(NC(=O)C3CCOCC3)c12` [Example 545, N-[6-[4-[(2,5-Dichlorophenyl)sulfonylamino]phenyl]-4-methyl-1H-pyrazolo[3,4-d]pyrimidin-3-yl]tetrahydropyran-4-carboxamide], 7.14. `CC(C)Oc1nc(-c2ccc(NS(=O)(=O)c3cc(Cl)ccc3F)c(F)c2)nc2[nH]nc(N)c12` [Example 444, N-[4-(3-Amino-4-isopropoxy-1H-pyrazolo[3,4-d]pyrimidin-6-yl)-2-fluoro-phenyl]-5-chloro-2-fluoro-benzenesulfonamide]: the negative-log IC50 (pIC50) is 7.30. In the case of `Nc1n[nH]c2nc(-c3ccc(NS(=O)(=O)c4cc(Cl)c(F)cc4F)cc3)ncc12` [Example 445, N-[4-(3-Amino-1H-pyrazolo[3,4-d]pyrimidin-6-yl)-phenyl]-5-chloro-2,4-difluoro-benzenesulfonamide], the pIC50 is 6.47. With `COc1ccc(Cl)c(S(=O)(=O)Nc2ccc(-c3ncc4c(C)n[nH]c4n3)cc2F)c1` [Example 533, 2-Chloro-N-[2-fluoro-4-(3-methyl-1H-pyrazolo[3,4-d]pyrimidin-6-yl)-phenyl]-5-methoxy-benzenesulfonamide], the negative-log IC50 (pIC50) was 5.74. Take `O=C(Nc1n[nH]c2nc(-c3ccc(NS(=O)(=O)c4cc(Cl)ccc4Cl)cc3)ncc12)C1CCNCC1` [Example 546, N-[6-[4-[(2,5-Dichlorophenyl)sulfonylamino]phenyl]-1H-pyrazolo[3,4-d]pyrimidin-3-yl]piperidine-4-carboxamide]: the negative-log IC50 (pIC50) is 5.96. In the case of `Cc1n[nH]c2nc(-c3ccc(NS(=O)(=O)c4cc(Cl)c(F)cc4F)cc3)ncc12` [Example 449, 5-Chloro-2,4-difluoro-N-[4-(3-methyl-1H-pyrazolo[3,4-d]pyrimidin-6-yl)-phenyl]-benzenesulfonamide], the pIC50 was 5.31. On to `Cc1nc(-c2ccc(NS(=O)(=O)c3cc(Cl)ccc3F)cc2)nc2[nH]ncc12` [Example 6, 5-Chloro-2-fluoro-N-[4-(4-methyl-1H-pyrazolo[3,4-d]pyrimidin-6-yl)-phenyl]-benzenesulfonamide], for which the negative-log IC50 (pIC50) is 5.59. For the compound `Cc1nc(-c2ccc(NS(=O)(=O)c3cc(Cl)ccc3Cl)cc2)nc2[nH]nc(NCC3CCOCC3)c12` [Example 547, 2,5-Dichloro-N-(4-{4-methyl-3-[(tetrahydro-pyran-4-ylmethyl)-amino]-1H-pyrazolo[3,4-d]pyrimidin-6-yl}-phenyl)-benzenesulfonamide], the pIC50 was 5.40.

For a further assay, the target named is recombinant human SGK-1 enzyme (Homo sapiens, UniProt O00141). Briefly: Enzymatic activity assay: SGK-1 substrate peptide phosphorylation (Caliper lab-chip mobility shift). It is filed as biochemical. Particulars: peptide substrate 1 μM, ATP 10 μM, 60 min at 37° C., read-out: IC50 values for inhibition of SGK-1 enzymatic activity. The method, then:
In one of the cellular assays, the SGK-1 dependent phosphorylation of glycogen synthase kinase 3beta (GSK3beta) in U2OS cells was measured, in another one, a functional electrophysiological assay, the SGK-1 dependent activation of epithelial Na^+ channel (ENaC) currents in A6 cell monolayers, and in another one chondrocyte hypertrophic differentiation in mouse chondrogenic ATDC5 cells.
A) Enzymatic Activity Assay
For the determination of the compound dose response, a 10 mM DMSO stock solution was diluted and tested in a ten-point, three-fold dilution series run in duplicate beginning at 30 μM final concentration. Data were analyzed using a four-parameter curve fit with a fixed minimum and maximum experimentally defined as the average positive and negative controls on each plate.
Regarding `CCCOc1nc(-c2ccc(NS(=O)(=O)c3cc(F)c(F)cc3Cl)cc2)cc2[nH]nc(N)c12` [Example 605], the negative-log IC50 (pIC50) was 7.64.

Turning to `Cc1n[nH]c2cc(-c3ccc(NS(=O)(=O)c4cc(Cl)ccc4F)cc3)nc(Oc3ccc(N(C)C)nc3)c12` [Example 694], the negative-log IC50 (pIC50) was 7.60. Regarding `CC(C)COc1nc(-c2ccc(NS(=O)(=O)c3ccc(F)cc3Cl)cc2)nc2[nH]nc(N)c12` [Example 318], the pIC50 is 6.02. Turning to `Cc1n[nH]c2nc(-c3ccc(NS(=O)(=O)c4ccccc4F)cc3)nc(OCC(CO)CO)c12` [Example 360], the pIC50 is 6.96. `Cc1ccc(Cl)c(S(=O)(=O)Nc2ccc(-c3cc4[nH]nc(C)c4c(OC4CC(C)(C)NC(C)(C)C4)n3)cc2)c1` [Example 648]: the pIC50 is 8.41. Consider `Cc1n[nH]c2nc(-c3ccc(NS(=O)(=O)c4ccccc4F)cc3)nc(OC3CCN(C(C)C)CC3)c12` [Example 352], for which the negative logarithm of the IC50 (pIC50) was 7.96.

Turning to `CCOc1nc(-c2ccc(NS(=O)(=O)c3cc(Cl)ccc3F)cc2)cc2[nH]nc(C)c12` [Example 676], the pIC50 was 7.64. Same read-out and setting: for `O=S(=O)(Nc1ccc(-c2nc(C3CC3)c3cn[nH]c3n2)cc1)c1ccccc1F` [Example 206] the value was 5.96; for `Cc1ccc(F)c(S(=O)(=O)Nc2ccc(-c3cc4[nH]nc(C)c4c(OCCC(=O)N(C)C)n3)cc2)c1` [Example 686], 7.96; for `Cc1n[nH]c2cc(-c3ccc(NS(=O)(=O)c4cc(F)ccc4F)cc3)nc(OCC3CN(C(C)C)C3)c12` [Example 592], 8.70. Same read-out and setting: with `O=S(=O)(Nc1ccc(-c2nc(OC3CCNCC3(F)F)c3cn[nH]c3n2)cc1)c1cc(Cl)ccc1Cl` (centres unmarked) [Example 247] the figure was 8.19. On to `COCCc1nc(-c2ccc(NS(=O)(=O)c3ccccc3F)cc2)nc2[nH]nc(N)c12` [Example 512], for which the pIC50 was 5.82. `CCN1CCC(Oc2nc(-c3ccc(NS(=O)(=O)c4ccccc4F)cc3)nc3[nH]nc(C)c23)CC1` [Example 402]: the pIC50 is 7.89. Turning to `Cc1ccc(C#N)c(S(=O)(=O)Nc2ccc(-c3nc(OCC(CO)CO)c4c(C)n[nH]c4n3)cc2)c1` [Example 371], the pIC50 was 8.41.

As for `Nc1n[nH]c2cc(-c3ccc(NS(=O)(=O)c4cccc(Cl)c4F)cc3)nc(C(F)(F)F)c12` [Example 578], the pIC50 is 6.37. Regarding `COc1ccc(Cl)c(S(=O)(=O)Nc2ccc(-c3cc4[nH]nc(C)c4c(Oc4ccc(OC)nc4)n3)cc2)c1` [Example 651], the negative logarithm of the IC50 (pIC50) was 7.60.

Take `COc1ccc(F)c(S(=O)(=O)Nc2ccc(-c3cc4[nH]nc(C)c4c(OCCC(=O)N(C)C)n3)cc2)c1` [Example 692]: the pIC50 is 8.19. Same read-out and setting: with `COc1cc(Oc2nc(-c3ccc(NS(=O)(=O)c4cc(Cl)ccc4F)cc3)cc3[nH]nc(C)c23)ccn1` [Example 666] the figure was 7.60; with `COc1ccc(Oc2nc(-c3ccc(NS(=O)(=O)c4cc(F)ccc4F)cc3)cc3[nH]nc(C)c23)cn1` [Example 622], 7.43; with `COc1ccc(Cl)c(S(=O)(=O)Nc2ccc(-c3cc4[nH]nc(C)c4c(Oc4ccnc(OC)c4)n3)cc2)c1` [Example 670], 7.60. Turning to `COc1ccc(Oc2nc(-c3ccc(NS(=O)(=O)c4ccccc4F)cc3)cc3[nH]nc(C)c23)cn1` [Example 624], the negative-log IC50 (pIC50) is 7.43.

`COc1cc(Oc2nc(-c3ccc(NS(=O)(=O)c4cc(C)ccc4C#N)cc3)cc3[nH]nc(C)c23)ccn1` [Example 667]: the negative-log IC50 (pIC50) was 7.96. On the same count and under the same terms, with `COCCN1CCC(Oc2nc(-c3ccc(NS(=O)(=O)c4cc(F)ccc4F)cc3)nc3[nH]nc(C)c23)CC1` [Example 407] the figure was 7.96. The same measure, in the same setting: with `O=S(=O)(Nc1ccc(-c2nc(OCC(F)(F)F)c3cn[nH]c3n2)cc1)c1cc(Cl)ccc1Cl` [Example 161] the figure was 7.72. For the compound `Cc1ccc(F)c(S(=O)(=O)Nc2ccc(-c3nc(OCC(F)(F)CN)c4c(C)n[nH]c4n3)cc2)c1` [Example 364], the negative logarithm of the IC50 (pIC50) was 8.19. Regarding `Nc1n[nH]c2nc(-c3ccc(NS(=O)(=O)c4cc(Cl)ccc4Cl)cc3)nc(OCC3CC3)c12` [Example 355], the pIC50 is 7.89. Take `CCOc1nc(-c2ccc(NS(=O)(=O)c3cc(F)c(F)cc3F)cc2)cc2[nH]nc(N)c12` [Example 613]: the pIC50 was 7.72.

Consider `Nc1n[nH]c2cc(-c3ccc(NS(=O)(=O)c4cc(F)cc(F)c4Cl)cc3)ncc12` [Example 557], for which the pIC50 was 7.02. In the case of `Cc1n[nH]c2nc(-c3ccc(NS(=O)(=O)c4cc(Cl)ccc4C#N)cc3)nc(OCC(C)C)c12` [Example 354], the negative logarithm of the IC50 (pIC50) is 6.96.

The same assay, now with this note: read-out: IC50 values for inhibition of SGK-1 enzymatic activity, peptide substrate 1 μM, ATP 10 μM, 60 min at 37° C.
Take `Nc1n[nH]c2nc(-c3ccc(NS(=O)(=O)c4cc(Cl)c(F)cc4F)cc3)nc(C3CC3)c12` [Example 448, N-[4-(3-Amino-4-cyclopropyl-1H-pyrazolo[3,4-d]pyrimidin-6-yl)phenyl]-5-chloro-2,4-difluoro-benzenesulfonamide]: the pIC50 is above 8.82.
